From patent US7696161B2, “Exendin agonist compounds” (Amylin Pharmaceuticals, Inc., priority 1997, dated 2010)

How the values were obtained:
C57BLKS/J-m-db mice = experiment: Determination of blood glucose levels in db/db mice; assay type: in vivo; details: 1 μg subcutaneous, plasma glucose one hour after injection vs baseline
[1] = target: cyclase (RINm5f membranes); experiment: Cyclase activation study (cAMP by SPA immunoassay, membranes); assay type: biochemical; details: cAMP in membranes, 20 minutes incubation at 37° C.
Procedure: GLP-1(7-36) [NH2] was purchased from Bachem (Torrance, Calif.). All other peptides were prepared using synthesis methods such as those described therein. All chemicals were of the highest commercial grade. The cAMP SPA immunoassay was purchased from Amersham. The radioligands were purchased from New England Nuclear (Boston, Mass.). […] Cells were grown to confluence then harvested and homogenized using on a Polytron homogenizer. Cell homogenates were stored frozen at −70° C. until used. […] Membranes and peptides were combined in […] of assay buffer in 96 well filter-bottom plates (Millipore Corp., Bedford, Mass.). […] Supernatant cAMP contents were quantitated by SPA immunoassay. […] The biological activity of a particular sample was expressed as an EC50 value, calculated as described above.

With CC[C@H](C)[C@H](NC(=O)[C@H](Cc1ccccc1)NC(=O)[C@H](CC(C)C)NC(=O)[C@H](CCCNC(=N)N)NC(=O)[C@@H](NC(=O)[C@H](C)NC(=O)[C@H](CCC(=O)O)NC(=O)[C@H](C)NC(=O)[C@H](CCC(=O)O)NC(=O)[C@H](CC(C)C)NC(=O)[C@H](CCC(N)=O)NC(=O)[C@H](CCCCN)NC(=O)[C@H](CO)NC(=O)[C@H](CC(C)C)NC(=O)[C@H](CC(=O)O)NC(=O)[C@H](CO)NC(=O)[C@@H](NC(=O)[C@H](Cc1ccccc1)NC(=O)[C@@H](NC(=O)CNC(=O)[C@H](CCC(=O)O)NC(=O)CNC(=O)[C@@H](N)Cc1c[nH]cn1)[C@@H](C)O)[C@@H](C)O)C(C)C)C(=O)N[C@@H](CCC(=O)O)C(=O)N[C@@H](Cc1ccccc1)C(=O)N[C@@H](CC(C)C)C(=O)N[C@@H](CCCCN)C(=O)N[C@@H](CC(N)=O)C(N)=O [Compound 14] the “% drop in glucose” value (C57BLKS/J-m-db mice) was 54% and the EC50 [1] was 1.11 nM.
In the case of CC[C@H](C)[C@H](NC(=O)[C@H](Cc1ccccc1)NC(=O)[C@H](CC(C)C)NC(=O)[C@H](CCCNC(=N)N)NC(=O)[C@@H](NC(=O)[C@H](C)NC(=O)[C@H](C)NC(=O)[C@H](CCC(=O)O)NC(=O)[C@H](CCC(=O)O)NC(=O)[C@H](CC(C)C)NC(=O)[C@H](CCC(N)=O)NC(=O)[C@H](CCCCN)NC(=O)[C@H](CO)NC(=O)[C@H](CC(C)C)NC(=O)[C@H](CC(=O)O)NC(=O)[C@H](CO)NC(=O)[C@@H](NC(=O)[C@H](Cc1ccccc1)NC(=O)[C@@H](NC(=O)CNC(=O)[C@H](CCC(=O)O)NC(=O)CNC(=O)[C@@H](N)Cc1c[nH]cn1)[C@@H](C)O)[C@@H](C)O)C(C)C)C(=O)N[C@@H](CCC(=O)O)C(=O)N[C@@H](Cc1ccccc1)C(=O)N[C@@H](CC(C)C)C(=O)N[C@@H](CCCCN)C(=O)N[C@@H](CC(N)=O)C(N)=O [Compound 15], the “% drop in glucose” value (C57BLKS/J-m-db mice) is reported as 45% and the EC50 [1] is reported as 1.05 nM.
With CC[C@H](C)[C@H](NC(=O)[C@H](Cc1ccccc1)NC(=O)[C@H](CC(C)C)NC(=O)[C@H](CCCNC(=N)N)NC(=O)[C@H](C)NC(=O)[C@H](C)NC(=O)[C@H](CCC(=O)O)NC(=O)[C@H](CCC(=O)O)NC(=O)[C@H](CCC(=O)O)NC(=O)[C@H](CC(C)C)NC(=O)[C@H](CCC(N)=O)NC(=O)[C@H](CCCCN)NC(=O)[C@H](CO)NC(=O)[C@H](CC(C)C)NC(=O)[C@H](CC(=O)O)NC(=O)[C@H](CO)NC(=O)[C@@H](NC(=O)[C@H](Cc1ccccc1)NC(=O)[C@@H](NC(=O)CNC(=O)[C@H](CCC(=O)O)NC(=O)CNC(=O)[C@@H](N)Cc1c[nH]cn1)[C@@H](C)O)[C@@H](C)O)C(=O)N[C@@H](CCC(=O)O)C(=O)N[C@@H](Cc1ccccc1)C(=O)N[C@@H](CC(C)C)C(=O)N[C@@H](CCCCN)C(=O)N[C@@H](CC(N)=O)C(N)=O [Compound 16] the “% drop in glucose” value (C57BLKS/J-m-db mice) was 54% and the EC50 [1] was 5.12 nM.
With CC[C@H](C)[C@H](NC(=O)[C@H](Cc1ccccc1)NC(=O)[C@H](CC(C)C)NC(=O)[C@H](C)NC(=O)[C@@H](NC(=O)[C@H](C)NC(=O)[C@H](CCC(=O)O)NC(=O)[C@H](CCC(=O)O)NC(=O)[C@H](CCC(=O)O)NC(=O)[C@H](CC(C)C)NC(=O)[C@H](CCC(N)=O)NC(=O)[C@H](CCCCN)NC(=O)[C@H](CO)NC(=O)[C@H](CC(C)C)NC(=O)[C@H](CC(=O)O)NC(=O)[C@H](CO)NC(=O)[C@@H](NC(=O)[C@H](Cc1ccccc1)NC(=O)[C@@H](NC(=O)CNC(=O)[C@H](CCC(=O)O)NC(=O)CNC(=O)[C@@H](N)Cc1c[nH]cn1)[C@@H](C)O)[C@@H](C)O)C(C)C)C(=O)N[C@@H](CCC(=O)O)C(=O)N[C@@H](Cc1ccccc1)C(=O)N[C@@H](CC(C)C)C(=O)N[C@@H](CCCCN)C(=O)N[C@@H](CC(N)=O)C(N)=O [Compound 17] the “% drop in glucose” value (C57BLKS/J-m-db mice) was 45% and the EC50 [1] was 43.6 nM.
